Row | melting point [°C] | SMILES
1 | 246 | O=c1cc(-c2ccccc2)oc2cc(O)ccc12
2 | 38 | Fc1cnc(Cl)nc1Cl
3 | 198 to 202 | N#Cc1ccc(N2CCC(C(=O)NN)CC2)cc1
4 | 109 | COc1ccc2c(c1)CCC2=O
5 | 225 | Cc1nc(/C(C#N)=N/Nc2ccc(Cl)cc2)sc1/N=N/c1ccccc1
6 | 109 to 112 | CC(=O)c1nc2ccccc2s1
7 | 222 | Cc1c(C2(c3cc(Br)c(O)c(Br)c3C)OS(=O)(=O)c3ccccc32)cc(Br)c(O)c1Br
8 | 230 | CCOC(=O)c1nn(-c2ccc(C)cc2)c(C)c1C(=O)c1noc(-c2ccc(Cl)cc2)c1S(=O)(=O)c1ccccc1
9 | 109 | CC(=O)OC[C@@H](OC(C)=O)[C@H](OC(C)=O)[C@H](OC(C)=O)[C@@H](OC(C)=O)c1nnn[nH]1
10 | 20 | CCN(C)C(=O)COC(=O)c1ccccc1
11 | 42 | Nc1c(Br)cc(Br)cc1C(F)(F)F
12 | 73 | Nc1cc(C(F)(F)F)ccn1
13 | 134 | N#CC(Cc1ccc([N+](=O)[O-])cc1)c1ccccc1 (stereo unspecified)
14 | 269 to 270 | O=C(O)/C=C/c1cccc2c(Br)cccc12
15 | 29.4 | ClC(Cl)C(Cl)(Cl)C(Cl)(Cl)Cl
16 | 70 | CC(O)(c1ccc(Cl)cc1)c1ccc(Cl)cc1
17 | 119 | O=C(Nc1ccc([N+](=O)[O-])cc1)C(F)(F)C(F)(F)C(F)(F)C(F)(F)C(F)(F)C(F)(F)C(F)(F)C(F)(F)F
18 | 221 | O=C(O)c1ccc(O)c(O)c1O
19 | 54 | O=S(=O)(CCCl)c1ccccc1
20 | 250 | Nc1ccc(C=Cc2ccc(N)cc2OS(=O)(=O)c2ccccc2)c(OS(=O)(=O)c2ccccc2)c1
21 | 99 | Cc1cc(I)cnc1NCC(=O)OC(C)(C)C
22 | 138 | O/N=C(\Cc1ccccc1)c1ccc2c3c(cccc13)CC2
23 | 137 to 138 | O=C1CC(C(=O)OCc2ccccc2)N1 (stereo unspecified)

Row | melting point [°C] | SMILES
24 | 267 | C1C2CC3CC1CC(C2)C3
25 | 159 | Cc1cc(C(=O)O)cc(C)c1OCc1ccccc1
26 | 33 to 36 | Cc1cc(C(C)(C)C)nc(C(C)(C)C)c1
27 | 188 to 191 | O=C(O)c1ccc2c(c1)OCCOCCOCCOCCO2
28 | 93 to 94 | Cc1nc(-c2ccc(C(F)(F)F)cc2)sc1S(=O)(=O)Cl
29 | 151 | O=c1nc2ccccc2nc(C(F)(F)F)c1NNc1ccc(Cl)cc1
30 | 170 to 172 | CC(=O)OC1CCC2(C)C(=CCC3C2CCC2(C)C3CCC2C2(CBr)OCCO2)C1 (stereo unspecified)
31 | 298 | N#Cc1ccc(C=Cc2cccc(C=Cc3ccc(C#N)cc3[N+](=O)[O-])c2)c([N+](=O)[O-])c1
32 | 146 to 149 | COc1cc(O)cc(OC)c1OC
33 | 111 | CCCNc1cc(=O)oc2ccccc12
34 | 46 | S=C=Nc1ccc(Br)cc1Cl
35 | 183 to 184 | Cc1n[nH]c(=S)n(N)c1=O
36 | 126 to 127 | CCc1c(C)nc(NC(=O)NS(=O)(=O)c2cccs2)nc1Cl
37 | 127 to 130 | OCc1ccc(-c2cncnc2)cc1
38 | 102 | CCCCN(C)C(=O)Nc1ccc(Cl)c(Cl)c1
39 | 57 | C[C@]12CCC(=O)C=C1CCC[C@@H]2O
40 | 62 to 64 | Clc1cc(-c2ccccc2)nc2ccccc12
41 | 198 | Cc1cc2ncn(C3OC(CO)C(O)C3O)c2cc1C (stereo unspecified)
42 | 110 | C=C(C)C(N)=O
43 | 118 | CCCCC(C(N)=O)n1nnc2ccccc21 (stereo unspecified)
44 | 144 to 146 | CCOC(=O)c1c(C)sc(Sc2ccccc2[N+](=O)[O-])c1O
45 | 68 | O=C(Cl)c1ccc2c(c1)C(=O)OC2=O
46 | 317 | CC(=O)Nc1ccc(C2=NN(c3ccccc3)C(=O)/C2=C/C2C(=O)N(c3ccccc3)N=C2c2ccc(NC(C)=O)cc2)cc1 (stereo unspecified)

Row | melting point [°C] | SMILES
47 | 245 to 252 | CC(C)(C)C(N)P(=O)(O)O (stereo unspecified)
48 | 188 | Cc1cccc(NC(=O)C(C(F)(F)F)(C(F)(F)F)C(F)(F)F)c1
49 | 132 to 135 | Cn1nc(-c2ccccc2)cc1N
50 | 35 | N#Cc1cc(F)c(F)cc1Cl
51 | 125 | CN(C)c1ccc(C(/C=C2\C=Cc3ccccc3N2)c2ccccc2)cc1 (stereo unspecified)
52 | 74 | CCCCCCCCCCCCCCCCCC(=O)OCC(O)CO (stereo unspecified)
53 | 154 | CCOC(=O)c1cc(C(=O)O)c([N+](=O)[O-])cc1[N+](=O)[O-]
54 | 203 | OCC1OC(OC2OC(CO)C(O)C(O)C2O)C(O)C(O)C1O (stereo unspecified)
55 | 257 to 260 | O=C(O)C1=NN(c2ccccc2)C(=O)C1=CC1C(=O)N(c2ccccc2)N=C1C(=O)O (stereo unspecified)
56 | 258 to 261 | COc1ccc2[nH]cc(CC(N)C(=O)O)c2c1 (racemic)
57 | 238 | O=C(O)Cc1ccc2c(c1)NC(=O)C2
58 | 249 | O=C(O)c1cc2cc(O)ccc2[nH]1
59 | 78 | c1c2c(cc3c1CCCC3)CCCC2
60 | 141 | CNC(=NCCSCc1nc[nH]c1C)NC#N
61 | 193 | N#C/C(=N\Nc1ccc(S(=O)(=O)O)cc1)c1nc2ccccc2s1
62 | 44 | O=[N+]([O-])c1ccc(F)c(Cl)c1
63 | 213 to 216 | Cc1cccc(C)c1NC(=O)CN(CC(=O)O)CC(=O)O
64 | 108 | COc1ccc(C2Cc3ccccc3C(=O)O2)cc1 (stereo unspecified)
65 | 115 to 117 | O=C(NCCCCO)OCC1c2ccccc2-c2ccccc21
66 | 58 | O=C=Nc1ccc2sccc2c1
67 | 182 to 183 | Cc1oc(-c2ccccc2)nc1C(=O)O
68 | 248 | Cc1ncc(CO)c(C(=O)O)c1O
69 | 196 | CC12CCC3c4ccc(OC(=O)c5ccccc5)cc4CCC3C1CCC2O (stereo unspecified)

Row | melting point [°C] | SMILES
70 | 270 | O=C(O)c1cc(O)c(Br)c(O)c1
71 | 226 to 227 | N#CC1(C(=O)c2ccccc2)C(c2ccc(F)cc2)NC(=O)NC1c1ccc(F)cc1 (stereo unspecified)
72 | 228 | CSc1c(C#N)c(N)nc2c(/N=N/c3ccc(F)cc3)c(N)nn12
73 | -25 | CCCCCCCCCCCC(C)C
74 | 131 to 132 | O=Cc1ccc(I)c(O)c1
75 | 174 to 178 | O=C1CC(=O)CC(c2ccc(F)cc2)C1
76 | 108 | O=C(c1ccncc1)c1ccc(Cl)cc1
77 | 152 to 156 | Nc1nc(-c2ccccc2)ns1
78 | 91 to 96 | O=C(O)C=CC(=O)c1ccccc1
79 | 125 to 127 | COC(=O)c1ccccc1S(N)(=O)=O
80 | 173 to 175 | NNC(=O)c1ccc(Br)cc1Cl
81 | 84 to 86 | COc1cc(I)c(OC)cc1C
82 | 124 | CCNc1nc(NC(C)(C)C)nc(OC)n1
83 | 56 to 57 | Cc1nc(C)c(CO)s1
84 | 114 | C=Cc1ccccc1-c1cn[nH]c1
85 | 70 to 72 | c1cc(-c2csnn2)ccc1OCC1CO1 (stereo unspecified)
86 | 113 to 115 | CC1(C)CC(=O)c2cc(-c3ccccc3)n(CCc3ccccc3)c2C1
87 | 53 to 57 | Nc1ccc(OCCN2CCOCC2)cc1
88 | 121 to 125 | COc1cc2c(cc1OC)C(c1ccccc1)=NCC2
89 | 328 | NCCS(=O)(=O)O
90 | -54 | CC1CCCC1C (stereo unspecified)
91 | 163 | CC(C(=O)O)N1C(=O)c2ccccc2C1=O (stereo unspecified)
92 | 256 to 257 | O=C(O)c1ccc(N2CCOCC2)nc1

Row | melting point [°C] | SMILES
93 | -23 | C[Si](C)(C)N=C=N[Si](C)(C)C
94 | 209 | O=C1NC2=Cc3ccccc3C2(O)Cc2ccccc21 (stereo unspecified)
95 | 220 to 223 | NC(=O)c1ccc(C(F)(F)F)nc1O
96 | 122 to 123 | Nc1ccc(Cl)nc1Cl
97 | 219 | NS(=O)(=O)c1ccc2ccccc2c1
98 | 116 | Nc1ccc(C=Cc2ccccc2)c(N)c1
99 | 60 to 62 | Cc1cc(Br)c(O)c2c1CCC2
100 | 238 | C=C1C(=O)C23C4CC5C(C)(C)CCC(OC(C)=O)C5(C(=O)O4)C2C(OC(C)=O)CC1C3O (stereo unspecified)
101 | 254 | O=C(O)c1ccc(C(=O)O)nc1
102 | 11 | CC(Br)C(C)(C)Br (stereo unspecified)
103 | -17 | C#CCCCCCCCC#C
104 | 221 | O=C1CCC(=O)N1c1nnc(C(F)(F)F)s1
105 | 221 | CCOC(=O)c1nn(-c2ccc(C)cc2)c(C)c1C(=O)C1=NOC2C(=O)N(c3ccc(OC)cc3)C(=O)C12 (stereo unspecified)
106 | 95 | O=C(CCC(O)c1ccccc1)c1ccccc1 (stereo unspecified)
107 | 280 | COc1ccc(/C=C(/C#N)c2nc3ccccc3c(=O)[nH]2)cc1
108 | 128 to 130 | Nc1ccc(Cn2ccnc2)cc1
109 | 105 to 107 | CC(=O)c1ccc(OCc2ccc(F)cc2)c([N+](=O)[O-])c1
110 | 235 to 237 | O=C(Nc1ccc(I)cc1)C(C(F)(F)F)C(F)(F)F
111 | 178 | O=C(OCC1(COC(=O)c2cccnc2)CCCC(COC(=O)c2cccnc2)(COC(=O)c2cccnc2)C1O)c1cccnc1
112 | 15.5 | OC1CCc2ccccc2C1 (stereo unspecified)
113 | -88 | CC(C)OC(C)(C)C
114 | 138 | O=[N+]([O-])c1ccc(Br)nc1

Row | SMILES | melting point [°C]
115 | O=C(O)C(O)(C(F)(F)F)C(F)(F)F | 81
116 | CCOC(=O)c1c[nH]c2c(c1=O)CNN2C | 138 to 140
117 | CNP(=O)(NC)Oc1ccccc1 | 102
118 | CCN(CC)C(=O)n1cnc(S(=O)(=O)c2c(C)cc(C)cc2C)n1 | 115
119 | O=C(O)CNC(=O)CCl | 102
120 | CN1CCc2cc3c(cc2C1)OCO3 | 66
121 | CNc1ccncc1 | 126
122 | C#CC(C)(CC)OC(N)=O (stereo unspecified) | 55.8
123 | OOC1CCCCC1 | -20
124 | CCOP(=S)(OCC)SCSP(=S)(OCC)OCC | -12
125 | O=C1C(=Cc2ccc(N(CCCl)CCCl)cc2)SC(=S)N1CN(CCCl)CCCl | 106
126 | Nc1ccncc1Cl | 51

— a melting point compilation (Tetko et al.)
